# Values of other authors, collected in US20030108495A1, “Cosmetic compositions containing 2,2-dihydroxymethy1-1,3-dioxolanes” (priority 2001, published 2003).
# System: moisturized human skin
# Conditions: cosmetic composition applied to moisturized human skin
structure (smiles),measurement,value
"O=C(CO)CO [DHA, 1,3-dihydroxyacetone]",time after initial application until tan appearance (brown-colored melanoidins),approximately five
